Reference: patent publication US9382254B2, “Compounds and pharmaceutical compositions thereof for the treatment of cystic fibrosis” (Galapagos NV, priority 2013, dated 2016)
pEC50: −log10 of the molar value. Where two headings read alike, the source gives them in different places.

Assays:
Format in all cases: cell-based
CFTR ΔF508 mutant = molecular target: T1, CFTR ΔF508 mutant (Homo sapiens, UniProt P13569, DEL508-508); test: YFP-halide influx assay for the CFTR-ΔF508 mutation (384 well, FDSS/μCell); settings: CFBE41o- cells, CFTR-ΔF508, 1×D-PBS, fluorescence after 36 seconds
T1 construct: expressed in transfected cells; host or cells: CFBE41o- (adenoviral transduction)
T1 sequence (P13569 with tags, fused parts or gaps DEL508-508): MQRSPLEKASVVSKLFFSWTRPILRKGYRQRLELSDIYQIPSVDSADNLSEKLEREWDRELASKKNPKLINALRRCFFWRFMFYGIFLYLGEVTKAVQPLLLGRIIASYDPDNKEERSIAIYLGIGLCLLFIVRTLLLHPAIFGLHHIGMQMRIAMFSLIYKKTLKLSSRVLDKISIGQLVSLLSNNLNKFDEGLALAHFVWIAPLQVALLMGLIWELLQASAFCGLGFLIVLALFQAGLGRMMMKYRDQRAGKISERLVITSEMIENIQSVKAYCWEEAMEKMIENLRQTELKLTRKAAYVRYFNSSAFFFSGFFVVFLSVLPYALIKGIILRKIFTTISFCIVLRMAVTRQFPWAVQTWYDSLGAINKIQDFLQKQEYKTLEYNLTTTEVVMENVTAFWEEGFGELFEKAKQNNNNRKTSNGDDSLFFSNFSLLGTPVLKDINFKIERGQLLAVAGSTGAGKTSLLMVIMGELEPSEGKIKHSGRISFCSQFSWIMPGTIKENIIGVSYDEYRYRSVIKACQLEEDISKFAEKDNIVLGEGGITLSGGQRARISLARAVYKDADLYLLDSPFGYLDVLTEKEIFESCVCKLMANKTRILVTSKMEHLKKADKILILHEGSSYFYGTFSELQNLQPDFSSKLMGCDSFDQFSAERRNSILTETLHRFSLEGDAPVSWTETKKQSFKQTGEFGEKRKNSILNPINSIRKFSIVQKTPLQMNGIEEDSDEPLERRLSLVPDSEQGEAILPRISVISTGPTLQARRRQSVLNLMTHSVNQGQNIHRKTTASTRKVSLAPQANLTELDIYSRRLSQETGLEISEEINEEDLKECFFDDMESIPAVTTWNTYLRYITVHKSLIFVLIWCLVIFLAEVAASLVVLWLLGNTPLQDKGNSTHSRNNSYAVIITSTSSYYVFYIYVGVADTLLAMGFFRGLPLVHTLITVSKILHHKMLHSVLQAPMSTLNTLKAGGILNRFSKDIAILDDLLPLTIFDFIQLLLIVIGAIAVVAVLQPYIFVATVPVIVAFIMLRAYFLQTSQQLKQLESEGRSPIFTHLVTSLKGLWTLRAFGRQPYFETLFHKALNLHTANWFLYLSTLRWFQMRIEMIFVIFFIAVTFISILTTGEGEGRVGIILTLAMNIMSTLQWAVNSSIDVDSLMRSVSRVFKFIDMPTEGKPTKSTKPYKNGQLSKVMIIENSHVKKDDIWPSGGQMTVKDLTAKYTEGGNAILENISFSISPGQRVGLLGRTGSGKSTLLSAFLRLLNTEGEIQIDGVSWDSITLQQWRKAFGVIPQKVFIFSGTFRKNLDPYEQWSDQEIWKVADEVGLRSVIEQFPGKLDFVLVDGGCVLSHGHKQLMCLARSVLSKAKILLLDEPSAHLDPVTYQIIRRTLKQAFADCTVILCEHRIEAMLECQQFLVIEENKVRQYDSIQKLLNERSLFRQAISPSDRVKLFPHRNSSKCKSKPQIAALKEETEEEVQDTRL
Procedure, shortened: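 Potentiator read-out as 1−F/F0, F taken 36 s after iodide addition, EC50 fitted against compound concentration. Cells: CFBE41o- expressing ΔF508 CFTR plus halide-sensitive YFP via adenovirus, rescued by 27 °C for 24 h or 24 h modulator at 37 °C.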

CFTR G551D mutant = molecular target: T2, CFTR G551D mutant (Homo sapiens, UniProt P13569, G551D); test: YFP-halide influx assay for the CFTR-G551D mutation; settings: HEK293 cells, forskolin 10.67 μM
T2 construct: expressed in transfected cells; host or cells: HEK293 (reverse transfection with plasmid)
T2 sequence (P13569 whole entry G551D): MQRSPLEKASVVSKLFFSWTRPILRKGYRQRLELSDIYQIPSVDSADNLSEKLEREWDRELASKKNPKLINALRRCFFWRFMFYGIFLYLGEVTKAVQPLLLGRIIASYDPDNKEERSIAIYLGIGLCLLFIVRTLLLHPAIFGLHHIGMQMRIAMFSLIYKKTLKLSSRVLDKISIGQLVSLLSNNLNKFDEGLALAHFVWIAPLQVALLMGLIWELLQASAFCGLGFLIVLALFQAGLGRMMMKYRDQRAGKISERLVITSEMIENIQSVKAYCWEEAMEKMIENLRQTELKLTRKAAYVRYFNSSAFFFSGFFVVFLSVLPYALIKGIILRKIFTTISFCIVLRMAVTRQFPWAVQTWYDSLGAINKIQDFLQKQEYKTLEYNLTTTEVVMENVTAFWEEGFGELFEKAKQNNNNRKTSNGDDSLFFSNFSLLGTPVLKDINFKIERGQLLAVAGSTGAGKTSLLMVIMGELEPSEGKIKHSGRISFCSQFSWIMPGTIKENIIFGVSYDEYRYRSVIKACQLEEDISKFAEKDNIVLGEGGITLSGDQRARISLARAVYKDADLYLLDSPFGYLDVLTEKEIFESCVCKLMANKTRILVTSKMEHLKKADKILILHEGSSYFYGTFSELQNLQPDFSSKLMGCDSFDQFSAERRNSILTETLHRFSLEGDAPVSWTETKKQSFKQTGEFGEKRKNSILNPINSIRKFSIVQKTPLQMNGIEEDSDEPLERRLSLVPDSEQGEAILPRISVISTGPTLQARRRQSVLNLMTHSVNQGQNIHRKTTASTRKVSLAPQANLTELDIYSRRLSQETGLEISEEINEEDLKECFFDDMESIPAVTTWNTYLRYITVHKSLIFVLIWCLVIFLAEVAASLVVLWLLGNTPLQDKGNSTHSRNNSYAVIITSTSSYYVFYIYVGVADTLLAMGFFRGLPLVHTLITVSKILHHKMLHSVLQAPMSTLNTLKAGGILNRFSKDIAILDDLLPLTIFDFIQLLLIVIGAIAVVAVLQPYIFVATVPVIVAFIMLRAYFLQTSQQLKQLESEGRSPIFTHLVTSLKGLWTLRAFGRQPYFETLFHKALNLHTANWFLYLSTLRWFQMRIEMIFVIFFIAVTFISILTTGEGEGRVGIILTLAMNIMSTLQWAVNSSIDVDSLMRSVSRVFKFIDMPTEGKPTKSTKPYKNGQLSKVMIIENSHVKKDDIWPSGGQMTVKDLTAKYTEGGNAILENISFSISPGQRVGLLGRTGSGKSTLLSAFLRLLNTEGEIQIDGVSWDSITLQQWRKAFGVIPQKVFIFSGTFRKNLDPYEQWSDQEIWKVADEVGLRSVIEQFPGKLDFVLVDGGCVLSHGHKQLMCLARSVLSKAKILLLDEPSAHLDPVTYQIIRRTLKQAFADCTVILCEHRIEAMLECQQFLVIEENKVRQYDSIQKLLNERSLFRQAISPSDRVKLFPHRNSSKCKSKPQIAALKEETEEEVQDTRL
Procedure, shortened: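 HEK293 cells reverse-transfected with CFTR G551D and YFP H148Q/I152L/F47L halide sensor, expressed 24 h at 37 °C. Iodide-induced fluorescence quench recorded 7 s after I− injection; response = 1−F/F0, with EC50 from plot against compound concentration.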

CFTR-G178R = molecular target: T3, CFTR-G178R (Homo sapiens, UniProt P13569, G178R); test: YFP-halide influx assay for the CFTR-G178R
T3 construct: expressed in transfected cells
T3 sequence (P13569 whole entry G178R): as the sequence (P13569 whole entry G551D) above, with G178R, D551G counted along it
Excerpt: (§1) The YFP halide influx assay measures the functionality of the cystic fibrosis Transmembrane Conductance regulator (CFTR) channels. The assay is used to evaluate the capacity of compounds to increase the channel opening of existing mutant CFTR channels in the membrane. It makes use of the observation that the yellow fluorescent protein (YFP) variant YFP H148Q, I152L, […] has its fluorescence substantially quenched by halide ions like Cl^− and I^−. (Galietta, Haggie, & Verkman, 2001)
(§2) For this purpose, HEK293-cells are seeded in 96 well plates. During seeding, the cells are reverse-transfected with plasmid vectors that direct the expression of the CFTR G551D mutant and of the YFP reporter. Cells are incubated at 37° C., 5% CO2 for 24 hours so as to allow for sufficient expression of the CFTR protein.
(§3) The I^−-induced quenching of fluorescence is recorded immediately after injection of I^− for 7 seconds. The capacity of a compound to increase the channel opening is directly correlated with the decrease in fluorescence, and is expressed as (1-(fluorescence after 7 seconds (F)/fluorescence before injection (F0))) and an EC50 can be derived from a (1-F/F0) vs compound concentration plot.
(§4) Similar YHA assays were developed for other channel gating defective or channel conductance defective CFTR mutants to determine effect of compound on channel activity. Examples of mutants are G178R, G1349D, S549N, R117H, R334W. This assay is also used for additional class I CFTR mutants, including G542X, W1282X; class II mutants including N1303K, and for class III mutants including S1251N.

CFTR-G1349D = molecular target: T4, CFTR-G1349D (Homo sapiens, UniProt P13569, G1349D); test: YFP-halide influx assay for the CFTR-G1349D
T4 construct: expressed in transfected cells
T4 sequence (P13569 whole entry G1349D): as the sequence (P13569 whole entry G551D) above, with D551G, G1349D counted along it
Excerpt: as §1, §2, §3, §4

CFTR-S549N = molecular target: T5, CFTR-S549N (Homo sapiens, UniProt P13569, S549N); test: YFP-halide influx assay for the CFTR-S549N
T5 construct: expressed in transfected cells
T5 sequence (P13569 whole entry S549N): as the sequence (P13569 whole entry G551D) above, with S549N, D551G counted along it
Excerpt: as §1, §2, §3, §4

CFTR-R117H = molecular target: T6, CFTR-R117H (Homo sapiens, UniProt P13569, R117H); test: YFP-halide influx assay for the CFTR-R117H
T6 construct: expressed in transfected cells
T6 sequence (P13569 whole entry R117H): as the sequence (P13569 whole entry G551D) above, with R117H, D551G counted along it
Excerpt: as §1, §2, §3, §4

pEC50 (CFTR ΔF508 mutant)	pEC50 (CFTR G551D mutant)	pEC50 (CFTR-G178R)	pEC50 (CFTR-G1349D)	pEC50 (CFTR-S549N)	pEC50 (CFTR-R117H)	pEC50 (CFTR G551D mutant; class symbol)	pEC50 (CFTR-G1349D; class symbol)	Compound
7.89	7.01	7.25	7.50	6.88	7.06	–	–	NC(=O)c1cc(S(=O)(=O)c2ccccc2OC(F)(F)F)sc1NC(=O)C1(CO)CC1 [Compound 320, 2-[(1-Hydroxymethyl-cyclopropanecarbonyl)-amino]-5-(2-trifluoromethoxy-benzenesulfonyl)-thiophene-3-carboxylic acid amide]
8.03	6.64	6.72	6.34	5.82	6.47	–	–	CC(C)(O)C(=O)Nc1sc(S(=O)(=O)c2cc(F)ccc2Br)cc1C(N)=O [Compound 323, 5-(2-Bromo-5-fluoro-benzenesulfonyl)-2-(2-hydroxy-2-methyl-propionylamino)-thiophene-3-carboxylic acid amide]
7.95	5.55	5.73	5.59	5.67	6.10	–	–	CC(O)C(=O)Nc1sc(S(=O)(=O)c2ccc(F)cc2C(F)(F)F)cc1C(N)=O (centres unmarked) [Compound 325, 5-[4-fluoro-2-(trifluoromethyl)phenyl] sulfonyl-2-(2-hydroxypropanoylamino) thiophene-3-carboxamide]
7.63	5.85	5.77	5.69	5.57	6.07	–	–	CC(O)C(=O)Nc1sc(S(=O)(=O)c2ccc(F)cc2Cl)cc1C(N)=O (centres unmarked) [Compound 329, 5-(2-chloro-4-fluoro-phenyl) sulfonyl-2-(2-hydroxypropanoylamino) thiophene-3-carboxamide]
8.10	6.25	7.17	6.93	6.28	7.02	–	–	C[C@H](O)C(=O)Nc1sc(S(=O)(=O)c2ccc(OC(F)(F)F)cc2)cc1C(N)=O [Compound 331, 2-[[(2S)-2-hydroxypropanoyl]amino]-5-[4-(trifluoromethoxy)phenyl] sulfonyl-thiophene-3-carboxamide]
7.90	6.12	6.21	6.07	6.26	6.33	–	–	CC(O)C(=O)Nc1sc(S(=O)(=O)c2cc(F)ccc2Cl)cc1C(N)=O (centres unmarked) [Compound 333, 5-(2-chloro-5-fluoro-phenyl)sulfonyl-2-(2-hydroxypropanoylamino) thiophene-3-carboxamide]
8.43	6.82	7.35	7.32	6.47	6.93	–	–	CC(O)C(=O)Nc1sc(S(=O)(=O)c2cc(F)ccc2CC(F)(F)F)cc1C(N)=O (centres unmarked) [Compound 334, 5-[5-fluoro-2-(2,2,2-trifluoroethyl)phenyl] sulfonyl-2-(2-hydroxypropanoylamino) thiophene-3-carboxamide]
8.26	6.06	7.57	7.31	6.97	7.25	–	–	CC(C)(O)C(=O)Nc1sc(S(=O)(=O)c2cc(F)ccc2Cl)cc1C(N)=O [Compound 337, 5-(2-chloro-5-fluoro-phenyl)sulfonyl-2-[(2-hydroxy-2-methyl-propanoyl)amino] thiophene-3-carboxamide]
8.02	6.20	6.91	6.65	6.73	7.31	–	–	CC(CO)C(=O)Nc1sc(S(=O)(=O)c2ccc(F)cc2Cl)cc1C(N)=O (centres unmarked) [Compound 360, 5-(2-chloro-4-fluoro-phenyl)sulfonyl-2-[(3-hydroxy-2-methyl-propanoyl)amino] thiophene-3-carboxamide]
7.54	6.31	7.16	6.49	6.66	7.04	–	–	CC(C)(O)C(=O)Nc1sc(S(=O)(=O)c2ccc(C(F)(F)F)cn2)cc1C(N)=O [Compound 363, 2-[(2-hydroxy-2-methyl-propanoyl)amino]-5-[[5-(trifluoromethyl)-2-pyridyl]sulfonyl]thiophene-3-carboxamide]
7.76	6.49	7.49	7.00	7.26	7.47	–	–	CC(O)C(=O)Nc1sc(S(=O)(=O)c2ccc(C(F)(F)F)cc2F)cc1C(N)=O (centres unmarked) [Compound 368, 5-[2-fluoro-4-(trifluoromethyl)phenyl]sulfonyl-2-(2-hydroxypropanoylamino) thiophene-3-carboxamide]
7.93	6.16	7.13	6.71	6.35	6.85	–	–	CC(CO)C(=O)Nc1sc(S(=O)(=O)c2ccc(C(F)(F)F)cc2)cc1C(N)=O (centres unmarked) [Compound 369, 2-[(3-hydroxy-2-methyl-propanoyl)amino]-5-[4-(trifluoromethyl)phenyl] sulfonyl-thiophene-3-carboxamide]
7.88	7.00	7.71	7.50	7.15	7.34	–	–	COc1ccc(OC(F)(F)F)c(S(=O)(=O)c2cc(C(N)=O)c(NC(=O)C(C)(C)O)s2)c1 [Compound 373, 2-[(2-hydroxy-2-methyl-propanoyl)amino]-5-[5-methoxy-2-(trifluoromethoxy)phenyl]sulfonyl-thiophene-3-carboxamide]
7.23	5.88	6.21	6.09	5.74	6.44	–	–	CC(C)(O)C(=O)Nc1sc(S(=O)(=O)c2ccc(OC(F)(F)F)cn2)cc1C(N)=O [Compound 374, 2-[(2-hydroxy-2-methyl-propanoyl)amino]-5-[[5-(trifluoromethoxy)-2-pyridyl]sulfonyl] thiophene-3-carboxamide]
8.12	6.17	7.03	6.84	6.70	6.60	–	–	CC(C)(O)C(=O)Nc1sc(S(=O)(=O)c2ccc(OC(F)(F)F)cc2F)cc1C(N)=O [Compound 375, 5-[2-fluoro-4-(trifluoromethoxy)phenyl] sulfonyl-2-[(2-hydroxy-2-methyl-propanoyl)amino] thiophene-3-carboxamide]
8.09	6.28	7.06	6.76	6.60	6.86	–	–	CC(C)(O)C(=O)Nc1sc(S(=O)(=O)c2ccc(C(F)(F)F)cc2F)cc1C(N)=O [Compound 376, 5-[2-fluoro-4-(trifluoromethyl)phenyl] sulfonyl-2-[(2-hydroxy-2-methyl-propanoyl)amino] thiophene-3-carboxamide]
7.39	6.15	6.62	6.87	6.03	6.11	–	–	CC(C)(O)C(=O)Nc1sc(S(=O)(=O)c2ccc(OC(F)(F)F)c(F)c2)cc1C(N)=O [Compound 377, 5-[3-fluoro-4-(trifluoromethoxy)phenyl] sulfonyl-2-[(2-hydroxy-2-methyl-propanoyl)amino] thiophene-3-carboxamide]
7.78	6.18	7.12	7.23	6.81	7.01	–	–	C[C@@H](CO)C(=O)Nc1sc(S(=O)(=O)c2ccc(OC(F)(F)F)cc2)cc1C(N)=O [Compound 379, 2-[[(2S)-3-hydroxy-2-methyl-propanoyl]amino]-5-[4-(trifluoromethoxy)phenyl] sulfonyl-thiophene-3-carboxamide]
8.20	–	–	–	6.92	6.58	< 6.00	< 6.00	Cc1c(S(=O)(=O)c2ccc(OC(F)(F)F)cc2)sc(NC(=O)C(C)(C)O)c1C(N)=O [Compound 437, 2-[(2-hydroxy-2-methyl-propanoyl)amino]-4-methyl-5-[4-(trifluoromethoxy)phenyl]sulfonyl-thiophene-3-carboxamide]
